Where “and” joins values, the source holds several entries; their conditions need not be identical. Identical values can stand only once. Numbers after ± are expanded uncertainties.
Experiments:
[1] = Crystal; DTA
[2] = Molar enthalpy of transition or fusion; settings: Crystal; DSC

Normal melting temperature [1] | Molar enthalpy of transition or fusion [2] [kJ/mol] | Compound
128.00 ± 0.5 °C and 127.50 ± 0.5 °C | 24.6 ± 1.1 | NC(=O)c1cccnc1 [3-pyridinecarboxamide]
94.20 ± 0.5 °C and 93.50 ± 0.5 °C | 30.5 ± 1.2 | CC(C(=O)O)c1cccc(C(=O)c2ccccc2)c1 (centres undefined) [ketoprofen]

Source: the NIST ThermoML archive (doi:10.1016/j.tca.2017.02.014)
